For assay [1], the target named is T1, Peroxisome proliferator-activated receptor alpha (Homo sapiens) (UniProt Q07869).
T1 sequence (whole entry): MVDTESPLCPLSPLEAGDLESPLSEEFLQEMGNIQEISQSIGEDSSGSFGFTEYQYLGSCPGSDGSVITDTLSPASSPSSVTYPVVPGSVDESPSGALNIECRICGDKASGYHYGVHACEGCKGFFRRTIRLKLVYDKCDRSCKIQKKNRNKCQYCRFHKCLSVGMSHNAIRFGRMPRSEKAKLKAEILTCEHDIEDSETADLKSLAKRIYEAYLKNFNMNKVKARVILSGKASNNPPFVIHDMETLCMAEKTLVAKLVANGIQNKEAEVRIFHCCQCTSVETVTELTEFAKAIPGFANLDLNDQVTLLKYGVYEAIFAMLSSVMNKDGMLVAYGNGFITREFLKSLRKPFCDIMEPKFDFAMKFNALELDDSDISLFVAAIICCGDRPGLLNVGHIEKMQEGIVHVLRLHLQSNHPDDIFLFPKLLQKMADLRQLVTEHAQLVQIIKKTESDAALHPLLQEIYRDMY
To be noted: filed as agonist.
Description: Binding affinity to recombinant PPAR alpha LBD (unknown origin) expressed in Escherichia coli BL21 assessed as melting temperature by differential scanning calorimetry analysis (Rvb = 47.45 degreeC)

For assay [2], the target named is T2, Peroxisome proliferator-activated receptor gamma (Homo sapiens) (UniProt P37231).
T2 sequence (whole entry): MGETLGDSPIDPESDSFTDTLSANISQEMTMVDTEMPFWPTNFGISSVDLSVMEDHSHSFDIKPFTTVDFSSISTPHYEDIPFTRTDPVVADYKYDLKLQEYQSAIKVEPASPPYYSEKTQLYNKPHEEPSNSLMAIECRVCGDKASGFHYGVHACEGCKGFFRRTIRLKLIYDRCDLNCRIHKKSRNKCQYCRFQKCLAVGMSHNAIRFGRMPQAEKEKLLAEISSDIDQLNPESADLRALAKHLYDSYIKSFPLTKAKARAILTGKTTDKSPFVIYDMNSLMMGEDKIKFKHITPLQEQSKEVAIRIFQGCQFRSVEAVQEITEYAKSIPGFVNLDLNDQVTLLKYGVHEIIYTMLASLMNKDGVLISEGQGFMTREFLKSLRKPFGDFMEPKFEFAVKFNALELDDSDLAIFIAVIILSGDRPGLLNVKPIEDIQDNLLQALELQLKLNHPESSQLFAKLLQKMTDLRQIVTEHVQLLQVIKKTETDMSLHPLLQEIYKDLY
To be noted: filed as agonist.

The structures appear in SMILES notation.

Two compounds from ChEMBL document CHEMBL5344417 can be followed below.

Regarding `Cc1cccc(Nc2cc(Cl)nc(SCC(=O)O)n2)c1C`, the Tm in assay [1] turned out to be 50 °C.
Turning to `CN(CCOc1ccc(CC2SC(=O)NC2=O)cc1)c1ccccn1` (configuration not stated), in assay [2], the Tm amounted to 53 °C.
